Data as given in ChEMBL document CHEMBL1201862, “PubChem BioAssay data set” (2004).
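Following 48 hours of exposure in 96-well plates, responses at five concentrations were used to interpolate endpoints linearly. Abbreviation: GI50, concentration required for 50% inhibition of growth.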 Active and inactive are the calls of the source. No stated cut-off is given here; in the data, active = GI50 up to about 1.1 µM and inactive = higher.

What was measured:
Assay in all cases: NCI-60 cell line screen, 48 h
[1] = system: SW-620
[2] = system: OVCAR-5
[3] = system: HOP-62
[4] = system: RPMI-8226
[5] = system: OVCAR-3
[6] = system: UO-31
[7] = system: EKVX
[8] = system: SF-268
[9] = system: IGROV-1
[10] = system: UACC-62
[11] = system: A549
[12] = system: SK-OV-3
[13] = system: CAKI-1
[14] = system: K562
[15] = system: RXF 393
[16] = system: KM-20L2
[17] = system: A498
[18] = system: SR
[19] = system: T47D
[20] = system: MDA-MB-435

Measured: GI50

CC(C)N1CCOC(c2ccc(O)c(O)c2)C1 (configuration not stated)
inactive: [1] > 100 µM | [2] > 100 µM | [3] > 100 µM | [4] > 100 µM | [5] > 100 µM | [6] > 100 µM | [7] > 100 µM | [8] > 100 µM | [9] > 100 µM | [10] > 100 µM | [11] > 100 µM | [12] > 100 µM | [13] > 100 µM | [14] > 100 µM | [15] > 100 µM | [16] > 100 µM

NC(=S)N/N=C1/C(=O)N(c2ccc(Cl)cc2Cl)C(=O)C(=O)C1c1nc2ccccc2s1 (configuration not stated)
inactive: [1] > 100 µM | [2] > 100 µM | [3] > 100 µM | [4] > 100 µM | [5] > 100 µM | [6] > 100 µM | [7] > 100 µM | [8] > 100 µM | [9] > 100 µM | [10] > 100 µM | [12] > 100 µM | [13] > 100 µM | [14] > 100 µM | [15] > 100 µM | [16] > 100 µM

C[N+](C)(C)CC(=O)N/N=C(\C(=O)Nc1ccc(Cl)cc1)C1C(=O)N(c2ccccc2)N=C1N (configuration not stated)
inactive: [1] > 100 µM | [2] > 100 µM | [3] > 100 µM | [4] > 100 µM | [5] > 100 µM | [6] > 100 µM | [7] > 100 µM | [17] > 100 µM | [8] > 100 µM | [9] > 100 µM | [10] > 100 µM | [11] > 100 µM | [12] > 100 µM | [13] > 100 µM | [14] > 100 µM | [15] > 100 µM | [16] > 100 µM

N#CC(C(=O)/C(=N/NC(=O)c1ccccc1O)C(C#N)c1ccccc1)c1ccccc1 (configuration not stated)
inactive: [3] > 100 µM | [4] > 100 µM | [5] > 100 µM | [6] > 100 µM | [7] > 100 µM | [17] > 100 µM | [8] > 100 µM | [9] > 100 µM | [10] > 100 µM | [11] > 100 µM | [12] > 100 µM | [15] > 100 µM | [16] > 100 µM

COC(=O)C(C(=O)Cc1ccccc1[N+](=O)[O-])C(=O)OC
inactive: [1] > 100 µM | [3] > 100 µM | [5] > 100 µM | [18] 23.9 µM | [6] > 100 µM | [7] > 100 µM | [8] > 100 µM | [9] > 100 µM | [10] > 100 µM | [11] > 100 µM | [12] > 100 µM | [13] > 100 µM | [15] > 100 µM | [16] > 100 µM

COc1ccc2nc3ccc(OC)cc3c([S+]([O-])Cc3ccccc3)c2c1 (configuration not stated)
inactive: [19] 2.11 µM | [1] 3.89 µM | [2] 15.7 µM | [20] 12.8 µM | [3] 18 µM | [4] 2.3 µM | [5] 13.1 µM | [18] 3.04 µM | [6] 6.87 µM | [7] 16.3 µM | [17] 17 µM | [8] 16.9 µM | [9] 7.96 µM | [10] 14.8 µM | [11] 19.1 µM | [12] 18.8 µM | [13] 12.8 µM | [14] 8.51 µM | [15] 13.6 µM

CCOC(=O)c1c2ccc(/C=C/C(=O)OC)ccc-2c(C(=O)OCC)c1N
inactive: [1] > 100 µM | [2] > 100 µM | [5] > 100 µM | [6] > 100 µM | [7] > 100 µM | [17] 6.52 µM | [8] 2.11 µM | [9] > 100 µM | [10] > 100 µM | [11] > 100 µM | [12] > 100 µM | [13] > 100 µM | [14] > 100 µM | [15] > 100 µM | [16] > 100 µM

NC(=S)N/N=C/C(=C/Nc1ccccc1)[N+](=O)[O-]
inactive: [1] > 100 µM | [2] > 100 µM | [3] > 100 µM | [4] > 100 µM | [5] > 100 µM | [7] > 100 µM | [8] > 100 µM | [9] > 100 µM | [10] > 100 µM | [11] > 100 µM | [12] > 100 µM | [13] > 100 µM | [14] > 100 µM | [15] > 100 µM | [16] > 100 µM

O=C1C[C@H]2CCCN2[C@@H](c2ccccc2)C1
inactive: [1] > 100 µM | [2] > 100 µM | [3] > 100 µM | [4] > 100 µM | [5] > 100 µM | [6] > 100 µM | [7] > 100 µM | [17] > 100 µM | [8] > 100 µM | [9] > 100 µM | [10] > 100 µM | [11] > 100 µM | [12] > 100 µM | [13] > 100 µM | [14] > 100 µM | [15] > 100 µM | [16] > 100 µM

O=C(Nc1cc(Cl)cc(Cl)c1)/C(Cc1nc2ccccc2nc1O)=N/NC(=O)c1ccncc1
inactive: [1] > 100 µM | [2] 67 µM | [3] > 100 µM | [4] > 100 µM | [5] > 100 µM | [6] > 100 µM | [7] > 100 µM | [17] > 100 µM | [9] > 100 µM | [10] > 100 µM | [11] > 100 µM | [12] > 100 µM | [13] > 100 µM | [14] > 100 µM | [16] > 100 µM

O=C(/C=C/c1ccc(Cl)cc1)c1ccc(Cl)c(Cl)c1
inactive: [1] 5.41 µM | [2] > 10 µM | [3] 22 µM | [4] 2.95 µM | [5] 21.7 µM | [6] 28.5 µM | [7] 26.4 µM | [17] 34.4 µM | [8] 20.7 µM | [9] 22.3 µM | [10] 23.7 µM | [11] 23.7 µM | [12] 26.4 µM | [13] 18.1 µM | [14] 21.7 µM | [15] 15.5 µM | [16] 41.2 µM

O=[N+]([O-])c1ccc2c3c1[C@@H]1O[C@@H]1c1cccc(c1-3)[C@@H]1O[C@H]21
inactive: [19] 3.35 µM | [1] 2.72 µM | [2] 13.6 µM | [20] 2.08 µM | [3] 10.2 µM | [4] 1.88 µM | [5] 3.05 µM | [18] 4.21 µM | [6] 2.07 µM | [7] 6.35 µM | [17] 3.23 µM | [8] 2.56 µM | [9] 1.24 µM | [10] 7.14 µM | [11] 6.76 µM | [12] 17.4 µM | [13] 1.61 µM | [14] 4.2 µM | [15] 4.17 µM
